Experimental data published in ChEMBL document CHEMBL4507320, “Data for DCP probe NVS-MALT1” (2021).

Columns and labels:
[1] = test system: Tyrosine-protein kinase ABL1 (Homo sapiens), P00519 [Q252H]; details: Compound concentration 1000.0 nM
[2] = biological target: Tyrosine-protein kinase ABL1 (Homo sapiens) (UniProt P00519); details: Compound concentration 1000.0 nM
[3] = biological target: Atypical kinase COQ8B, mitochondrial (Homo sapiens) (UniProt Q96D53); details: Compound concentration 1000.0 nM
Atypical kinase COQ8B, mitochondrial (Homo sapiens), sequence (Q96D53 whole entry): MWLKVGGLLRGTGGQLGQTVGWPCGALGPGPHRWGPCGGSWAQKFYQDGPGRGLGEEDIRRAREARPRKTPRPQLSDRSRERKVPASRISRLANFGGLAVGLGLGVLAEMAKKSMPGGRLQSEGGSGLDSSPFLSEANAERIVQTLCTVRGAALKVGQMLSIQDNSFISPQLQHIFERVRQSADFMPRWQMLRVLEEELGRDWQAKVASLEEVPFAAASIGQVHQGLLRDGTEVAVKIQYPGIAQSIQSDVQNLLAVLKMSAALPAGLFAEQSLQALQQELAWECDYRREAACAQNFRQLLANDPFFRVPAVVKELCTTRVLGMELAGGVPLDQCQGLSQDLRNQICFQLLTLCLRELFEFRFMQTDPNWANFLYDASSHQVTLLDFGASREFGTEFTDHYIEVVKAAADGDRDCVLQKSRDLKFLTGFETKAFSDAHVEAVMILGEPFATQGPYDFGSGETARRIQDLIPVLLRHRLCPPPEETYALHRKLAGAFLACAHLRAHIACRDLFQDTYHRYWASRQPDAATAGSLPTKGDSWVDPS

[4] = biological target: ALK tyrosine kinase receptor (Homo sapiens) (UniProt Q9UM73); details: Compound concentration 1000.0 nM
[5] = biological target: Calcium/calmodulin-dependent protein kinase type II subunit beta (Homo sapiens) (UniProt Q13554); details: Compound concentration 1000.0 nM
[6] = biological target: Peripheral plasma membrane protein CASK (Homo sapiens) (UniProt O14936); details: Compound concentration 1000.0 nM
[7] = biological target: Cyclin-dependent kinase 3 (Homo sapiens) (UniProt Q00526); details: Compound concentration 1000.0 nM
[8] = biological target: Cyclin-dependent kinase 9 (Homo sapiens) (UniProt P50750); details: Compound concentration 1000.0 nM
[9] = biological target: Casein kinase I isoform gamma-2 (Homo sapiens) (UniProt P78368); details: Compound concentration 1000.0 nM
[10] = biological target: Megakaryocyte-associated tyrosine-protein kinase (Homo sapiens) (UniProt P42679); details: Compound concentration 1000.0 nM
[11] = test system: Epidermal growth factor receptor (Homo sapiens), P00533 [UNDEFINED MUTATION]; details: Compound concentration 1000.0 nM
Epidermal growth factor receptor (Homo sapiens), P00533 [UNDEFINED MUTATION], sequence (P00533 whole entry, looked up, change not shown): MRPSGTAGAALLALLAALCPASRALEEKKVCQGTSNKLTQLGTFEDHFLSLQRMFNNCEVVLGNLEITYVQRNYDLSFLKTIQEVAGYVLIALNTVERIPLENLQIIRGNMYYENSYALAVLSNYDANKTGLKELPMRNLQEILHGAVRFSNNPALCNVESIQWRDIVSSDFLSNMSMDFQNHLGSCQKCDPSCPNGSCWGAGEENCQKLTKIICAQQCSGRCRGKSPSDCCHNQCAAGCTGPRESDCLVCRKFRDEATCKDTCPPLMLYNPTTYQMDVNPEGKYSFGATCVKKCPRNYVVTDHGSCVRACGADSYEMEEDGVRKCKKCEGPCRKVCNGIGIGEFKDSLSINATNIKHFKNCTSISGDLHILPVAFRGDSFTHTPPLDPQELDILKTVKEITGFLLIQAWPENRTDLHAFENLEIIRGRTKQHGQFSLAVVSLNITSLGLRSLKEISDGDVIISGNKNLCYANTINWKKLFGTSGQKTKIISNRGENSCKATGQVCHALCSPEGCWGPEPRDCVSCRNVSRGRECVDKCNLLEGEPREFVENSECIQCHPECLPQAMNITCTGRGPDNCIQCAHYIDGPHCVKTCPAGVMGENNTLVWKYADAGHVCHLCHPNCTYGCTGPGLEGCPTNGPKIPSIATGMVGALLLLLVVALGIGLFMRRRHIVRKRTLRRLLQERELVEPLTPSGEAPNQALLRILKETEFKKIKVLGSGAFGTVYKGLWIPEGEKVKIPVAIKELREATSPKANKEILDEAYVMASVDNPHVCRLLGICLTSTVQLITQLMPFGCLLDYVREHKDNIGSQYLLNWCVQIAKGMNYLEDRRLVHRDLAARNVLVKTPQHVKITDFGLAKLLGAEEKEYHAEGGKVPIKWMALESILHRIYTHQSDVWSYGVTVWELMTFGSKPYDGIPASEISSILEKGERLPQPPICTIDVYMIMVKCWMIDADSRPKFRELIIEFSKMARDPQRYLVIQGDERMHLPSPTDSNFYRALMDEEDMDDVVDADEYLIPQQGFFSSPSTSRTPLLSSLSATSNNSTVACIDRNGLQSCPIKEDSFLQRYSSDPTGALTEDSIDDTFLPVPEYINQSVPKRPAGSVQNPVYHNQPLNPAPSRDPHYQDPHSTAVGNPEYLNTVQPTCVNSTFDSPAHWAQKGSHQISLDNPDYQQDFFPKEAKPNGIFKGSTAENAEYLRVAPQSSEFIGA

[12] = biological target: Ephrin type-A receptor 6 (Homo sapiens) (UniProt Q9UF33); details: Compound concentration 1000.0 nM
Ephrin type-A receptor 6 (Homo sapiens), sequence (Q9UF33 whole entry): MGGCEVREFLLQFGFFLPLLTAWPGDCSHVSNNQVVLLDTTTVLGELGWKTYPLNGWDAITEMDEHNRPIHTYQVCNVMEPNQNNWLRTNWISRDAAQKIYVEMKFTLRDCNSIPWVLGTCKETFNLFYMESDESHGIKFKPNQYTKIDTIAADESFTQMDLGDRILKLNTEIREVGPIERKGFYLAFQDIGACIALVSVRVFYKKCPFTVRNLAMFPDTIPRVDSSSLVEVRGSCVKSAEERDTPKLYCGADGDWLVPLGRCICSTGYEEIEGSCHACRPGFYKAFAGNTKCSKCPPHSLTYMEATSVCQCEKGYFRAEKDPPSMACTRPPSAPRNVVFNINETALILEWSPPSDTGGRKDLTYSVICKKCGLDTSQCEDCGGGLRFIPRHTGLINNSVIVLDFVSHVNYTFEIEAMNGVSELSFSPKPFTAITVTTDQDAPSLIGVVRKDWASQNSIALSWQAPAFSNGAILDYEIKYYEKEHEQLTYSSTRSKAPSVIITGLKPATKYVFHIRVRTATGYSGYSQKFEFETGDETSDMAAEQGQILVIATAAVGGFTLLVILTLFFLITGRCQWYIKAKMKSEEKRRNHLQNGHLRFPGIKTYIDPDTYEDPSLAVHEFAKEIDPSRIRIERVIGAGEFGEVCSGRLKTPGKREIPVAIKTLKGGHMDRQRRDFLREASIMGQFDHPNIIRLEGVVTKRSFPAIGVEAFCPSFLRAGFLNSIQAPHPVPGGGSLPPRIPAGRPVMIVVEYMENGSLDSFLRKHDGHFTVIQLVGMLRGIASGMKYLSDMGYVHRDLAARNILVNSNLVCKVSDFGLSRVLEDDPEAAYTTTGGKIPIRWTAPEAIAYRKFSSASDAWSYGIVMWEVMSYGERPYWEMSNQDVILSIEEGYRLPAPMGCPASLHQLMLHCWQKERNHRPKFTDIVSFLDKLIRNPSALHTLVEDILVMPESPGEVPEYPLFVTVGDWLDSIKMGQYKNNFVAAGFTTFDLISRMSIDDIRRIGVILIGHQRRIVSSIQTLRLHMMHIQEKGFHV

[13] = biological target: Mitogen-activated protein kinase 6 (Homo sapiens) (UniProt Q16659); details: Compound concentration 1000.0 nM
[14] = biological target: Mitogen-activated protein kinase 15 (Homo sapiens) (UniProt Q8TD08); details: Compound concentration 1000.0 nM
[15] = test system: Receptor-type tyrosine-protein kinase FLT3 (Homo sapiens), P36888 [D835Y]; details: Compound concentration 1000.0 nM
[16] = test system: Receptor-type tyrosine-protein kinase FLT3 (Homo sapiens), P36888 [UNDEFINED MUTATION]; details: Compound concentration 1000.0 nM
[17] = test system: eIF-2-alpha kinase GCN2 (Homo sapiens), Q9P2K8 [S808G]; details: Compound concentration 1000.0 nM
[18] = biological target: Beta-adrenergic receptor kinase 1 (Homo sapiens) (UniProt P25098); details: Compound concentration 1000.0 nM
[19] = biological target: Homeodomain-interacting protein kinase 3 (Homo sapiens) (UniProt Q9H422); details: Compound concentration 1000.0 nM
[20] = biological target: Inhibitor of nuclear factor kappa-B kinase subunit alpha (Homo sapiens) (UniProt O15111); details: Compound concentration 1000.0 nM
[21] = biological target: Tyrosine-protein kinase JAK1 (Homo sapiens) (UniProt P23458); details: Compound concentration 1000.0 nM
[22] = biological target: Serine/threonine-protein kinase LATS1 (Homo sapiens) (UniProt O95835); details: Compound concentration 1000.0 nM
[23] = biological target: Dual specificity mitogen-activated protein kinase kinase 6 (Homo sapiens) (UniProt P52564); details: Compound concentration 1000.0 nM
[24] = biological target: Dual specificity mitogen-activated protein kinase kinase 7 (Homo sapiens) (UniProt O14733); details: Compound concentration 1000.0 nM
[25] = biological target: Myosin light chain kinase, smooth muscle (Homo sapiens) (UniProt Q15746); details: Compound concentration 1000.0 nM
[26] = biological target: Serine/threonine-protein kinase Nek7 (Homo sapiens) (UniProt Q8TDX7); details: Compound concentration 1000.0 nM
[27] = biological target: Cyclin-dependent kinase 16 (Homo sapiens) (UniProt Q00536); details: Compound concentration 1000.0 nM
[28] = biological target: Platelet-derived growth factor receptor alpha (Homo sapiens) (UniProt P16234); details: Compound concentration 1000.0 nM
[29] = biological target: Cyclin-dependent kinase 15 (Homo sapiens) (UniProt Q96Q40); details: Compound concentration 1000.0 nM
[30] = test system: Phosphatidylinositol 4,5-bisphosphate 3-kinase catalytic subunit alpha isoform (Homo sapiens), P42336 [H1047Y]; details: Compound concentration 1000.0 nM
[31] = test system: Phosphatidylinositol 4,5-bisphosphate 3-kinase catalytic subunit alpha isoform (Homo sapiens), P42336 [Q546K]; details: Compound concentration 1000.0 nM
[32] = biological target: Phosphatidylinositol 4,5-bisphosphate 3-kinase catalytic subunit delta isoform (Homo sapiens) (UniProt O00329); details: Compound concentration 1000.0 nM
[33] = biological target: Serine/threonine-protein kinase D2 (Homo sapiens) (UniProt Q9BZL6); details: Compound concentration 1000.0 nM
[34] = biological target: Serine/threonine-protein kinase RIO3 (Homo sapiens) (UniProt O14730); details: Compound concentration 1000.0 nM
[35] = biological target: Ribosomal protein S6 kinase alpha-6 (Homo sapiens) (UniProt Q9UK32); details: Compound concentration 1000.0 nM
[36] = biological target: Uncharacterized serine/threonine-protein kinase SBK3 (Homo sapiens) (UniProt P0C264); details: Compound concentration 1000.0 nM
[37] = biological target: Tyrosine-protein kinase Tec (Homo sapiens) (UniProt P42680); details: Compound concentration 1000.0 nM
[38] = biological target: High affinity nerve growth factor receptor (Homo sapiens) (UniProt P04629); details: Compound concentration 1000.0 nM
[39] = biological target: Non-receptor tyrosine-protein kinase TYK2 (Homo sapiens) (UniProt P29597); details: Compound concentration 1000.0 nM
[40] = biological target: Phosphatidylinositol 3-kinase catalytic subunit type 3 (Homo sapiens) (UniProt Q8NEB9); details: Compound concentration 1000.0 nM
[41] = biological target: Wee1-like protein kinase (Homo sapiens) (UniProt P30291); details: Compound concentration 1000.0 nM
[42] = biological target: Serine/threonine-protein kinase WNK2 (Homo sapiens) (UniProt Q9Y3S1); details: Compound concentration 1000.0 nM
Serine/threonine-protein kinase WNK2 (Homo sapiens), sequence (Q9Y3S1 whole entry): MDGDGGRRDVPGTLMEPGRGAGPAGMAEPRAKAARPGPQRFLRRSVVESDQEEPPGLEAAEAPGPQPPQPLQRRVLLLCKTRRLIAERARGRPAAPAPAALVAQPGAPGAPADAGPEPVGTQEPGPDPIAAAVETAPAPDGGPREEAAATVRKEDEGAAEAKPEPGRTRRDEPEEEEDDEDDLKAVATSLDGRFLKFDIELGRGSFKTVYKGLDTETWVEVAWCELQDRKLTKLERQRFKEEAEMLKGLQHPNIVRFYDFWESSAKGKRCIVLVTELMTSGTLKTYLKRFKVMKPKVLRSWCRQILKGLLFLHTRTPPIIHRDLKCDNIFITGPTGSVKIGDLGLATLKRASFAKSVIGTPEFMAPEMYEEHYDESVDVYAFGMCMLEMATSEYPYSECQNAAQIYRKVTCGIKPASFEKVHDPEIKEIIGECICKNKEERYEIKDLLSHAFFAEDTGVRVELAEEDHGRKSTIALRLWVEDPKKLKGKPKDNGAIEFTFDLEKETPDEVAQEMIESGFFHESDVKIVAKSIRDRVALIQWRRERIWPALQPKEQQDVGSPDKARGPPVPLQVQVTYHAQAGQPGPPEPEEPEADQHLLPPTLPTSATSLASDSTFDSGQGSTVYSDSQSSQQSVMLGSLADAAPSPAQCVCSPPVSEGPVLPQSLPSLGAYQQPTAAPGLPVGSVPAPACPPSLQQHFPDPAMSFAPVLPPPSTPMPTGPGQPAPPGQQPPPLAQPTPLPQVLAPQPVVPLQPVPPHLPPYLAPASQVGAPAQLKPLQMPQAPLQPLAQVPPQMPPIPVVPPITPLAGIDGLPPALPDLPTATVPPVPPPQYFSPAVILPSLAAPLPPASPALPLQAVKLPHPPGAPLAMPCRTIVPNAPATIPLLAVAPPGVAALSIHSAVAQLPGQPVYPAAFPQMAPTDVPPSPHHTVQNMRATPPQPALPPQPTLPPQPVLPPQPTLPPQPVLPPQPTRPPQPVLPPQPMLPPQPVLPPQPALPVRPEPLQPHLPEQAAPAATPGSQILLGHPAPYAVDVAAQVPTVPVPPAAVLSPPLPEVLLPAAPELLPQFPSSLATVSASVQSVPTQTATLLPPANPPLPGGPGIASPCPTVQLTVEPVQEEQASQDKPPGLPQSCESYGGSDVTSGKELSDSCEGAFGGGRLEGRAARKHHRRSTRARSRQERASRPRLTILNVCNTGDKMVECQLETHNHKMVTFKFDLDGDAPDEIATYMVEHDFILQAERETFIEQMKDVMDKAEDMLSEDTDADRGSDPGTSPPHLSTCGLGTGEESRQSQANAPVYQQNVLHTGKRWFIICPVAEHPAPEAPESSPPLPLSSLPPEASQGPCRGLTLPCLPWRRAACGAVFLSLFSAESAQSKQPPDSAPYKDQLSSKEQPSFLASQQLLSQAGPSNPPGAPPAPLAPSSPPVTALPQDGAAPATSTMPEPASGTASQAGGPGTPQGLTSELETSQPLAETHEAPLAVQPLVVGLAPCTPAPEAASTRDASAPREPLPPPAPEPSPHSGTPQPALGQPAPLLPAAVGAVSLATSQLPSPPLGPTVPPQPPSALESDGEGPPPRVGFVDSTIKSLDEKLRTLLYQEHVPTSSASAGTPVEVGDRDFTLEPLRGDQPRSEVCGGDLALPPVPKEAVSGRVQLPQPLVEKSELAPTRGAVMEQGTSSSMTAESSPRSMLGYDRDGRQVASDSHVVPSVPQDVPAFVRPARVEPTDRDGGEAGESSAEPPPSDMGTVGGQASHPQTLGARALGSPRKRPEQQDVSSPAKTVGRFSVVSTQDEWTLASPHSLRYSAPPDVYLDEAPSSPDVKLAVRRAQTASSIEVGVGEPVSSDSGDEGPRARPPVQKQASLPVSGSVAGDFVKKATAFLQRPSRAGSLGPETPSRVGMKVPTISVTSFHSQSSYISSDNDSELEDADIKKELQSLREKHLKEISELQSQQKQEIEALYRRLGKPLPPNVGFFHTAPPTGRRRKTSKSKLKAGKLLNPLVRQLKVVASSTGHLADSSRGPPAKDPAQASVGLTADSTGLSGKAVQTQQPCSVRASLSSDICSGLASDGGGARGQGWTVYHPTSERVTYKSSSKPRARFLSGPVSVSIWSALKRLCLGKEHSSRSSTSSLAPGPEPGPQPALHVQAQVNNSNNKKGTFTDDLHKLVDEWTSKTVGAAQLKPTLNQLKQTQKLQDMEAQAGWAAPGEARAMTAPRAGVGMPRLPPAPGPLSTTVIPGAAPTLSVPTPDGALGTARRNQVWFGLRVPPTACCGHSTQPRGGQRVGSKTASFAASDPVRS

[43] = biological target: Serine/threonine-protein kinase 32C (Homo sapiens) (UniProt Q86UX6); details: Compound concentration 1000.0 nM
[44] = biological target: Histamine H1 receptor (Homo sapiens) (UniProt P35367); details: Compound concentration 10.0 uM
[45] = species on record: Rattus norvegicus; details: Compound concentration 10.0 uM

`CO[C@@H](C)c1c(Nc2ccc([C@@H](N(C)C(=O)C3CCS(=O)(=O)CC3)C(F)(F)F)cc2)cnc2cc(Cl)nn12` [NVS-MALT1-C] was tested, and the residual activity [1] was 100%, the residual activity [2] was 74% and the residual activity [3] was 96%. The residual activity [4] was 100%, the residual activity [5] was 96% and the residual activity [6] was 100%. It also gave a residual activity [7] of 88%, a residual activity [8] of 100% and a residual activity [9] of 84%. The residual activity [10] was 98%, the residual activity [11] was 87% and the residual activity [12] was 100%. The residual activity [13] was 91%, the residual activity [14] was 81% and the residual activity [15] was 42%. For the same compound, the residual activity [16] was 59%, the residual activity [17] was 68% and the residual activity [18] was 92%. For the same compound, the residual activity [19] was 100%, the residual activity [20] was 100% and the residual activity [21] was 89%. For the same compound, the residual activity [22] was 98%, the residual activity [23] was 92% and the residual activity [24] was 100%. The residual activity [25] was 98%, the residual activity [26] was 91% and the residual activity [27] was 72%. The residual activity [28] was 100%, the residual activity [29] was 94% and the residual activity [30] was 52%. It also gave a residual activity [31] of 100%, a residual activity [32] of 87% and a residual activity [33] of 86%. The residual activity [34] was 90%, the residual activity [35] was 98% and the residual activity [36] was 81%. It also gave a residual activity [37] of 82%, a residual activity [38] of 93% and a residual activity [39] of 98%. The residual activity [40] was 100%, the residual activity [41] was 92% and the residual activity [42] was 100%. It also gave a residual activity [43] of 82%, an inhibition [44] of -9.88% and an inhibition [45] of 5.14%.

For `CO[C@@H](C)c1c(Nc2ccc([C@H](N(C)C(=O)C3CCS(=O)(=O)CC3)C(F)(F)F)cc2)cnc2cc(Cl)nn12` [NVS-MALT1], the residual activity [1] was 100%, the residual activity [2] was 63% and the residual activity [3] was 77%. For the same compound, the residual activity [4] was 100%, the residual activity [5] was 94% and the residual activity [6] was 100%. It also gave a residual activity [7] of 90%, a residual activity [8] of 85% and a residual activity [9] of 93%. For the same compound, the residual activity [10] was 99%, the residual activity [11] was 99% and the residual activity [12] was 100%. It also gave a residual activity [13] of 92%, a residual activity [14] of 87% and a residual activity [15] of 59%. The residual activity [16] was 85%, the residual activity [17] was 78% and the residual activity [18] was 84%. For the same compound, the residual activity [19] was 100%, the residual activity [20] was 100% and the residual activity [21] was 100%. The residual activity [22] was 88%, the residual activity [23] was 91% and the residual activity [24] was 100%. It also gave a residual activity [25] of 95%, a residual activity [26] of 75% and a residual activity [27] of 66%. The residual activity [28] was 100%, the residual activity [29] was 74% and the residual activity [30] was 62%. For the same compound, the residual activity [31] was 100%, the residual activity [32] was 98% and the residual activity [33] was 83%. For the same compound, the residual activity [34] was 82%, the residual activity [35] was 91% and the residual activity [36] was 84%. It also gave a residual activity [37] of 84%, a residual activity [38] of 80% and a residual activity [39] of 100%. For the same compound, the residual activity [40] was 100%, the residual activity [41] was 88% and the residual activity [42] was 98%. The residual activity [43] was 99%, the inhibition [44] was 10.2% and the inhibition [45] was 11.6%.
